We go through seven compounds from US20020007060A1, “Reverse hydroxamate inhibitors of matrix metalloproteinases” (priority 1998, published 2002).

In data set [1] the target is T1, Recombinant truncated stromelysin (human sequence) (Homo sapiens, UniProt P08254).
T1 construct: made in house; host or cells: E. coli
Description: Determination of Stromelysin Inhibition. It counts as biochemical. To be noted: cleavage of thiopeptide ester substrate Ac-Pro-Leu-Gly-[2-mercapto-4-methyl-pentanoyl]-Leu-Gly-OEt, DTNB read at 405 nm, 30 minute assay at ambient temperature, 50 mM MES/NaOH 6.5. As for the experimental part:
The efficacy of the compounds of this invention as matrix metalloproteinase inhibitors was determined by measuring the inhibition of stromelysin. The inhibition of stromelysin by the compounds of this invention was determined as follows: Recombinant truncated stromelysin (human sequence) produced in E. coli was prepared by expression and purification of the protein as described by Ye et al. (Biochemistry, 1992, 31, 11231-11235, which is incorporated herein by reference). The enzyme was assayed by its cleavage of the thiopeptide ester substrate Ac-Pro-Leu-Gly-[2-mercapto-4-methyl-pentanoyl]-Leu-Gly-OEt as described by Weingarten and Feder (Anal. Biochem., 1985, 147, 437-440 (1985), which is incorporated herein by reference) as a substrate of vertebrate collagenase. The reported conditions were modified to allow assays to be carried out in a microtiter plate. Upon hydrolysis of the thioester bond, the released thiol group reacted rapidly with 5,5′-dithio-bis(2-nitrobenzoic acid) (DTNB) to produce a yellow color which was measured by a microtiter plate reader set at 405 nm. The rates of cleavage of the substrate by stromelysin in the presence or absence of inhibitors were measured in a 30 minute assay at ambient temperature. Solutions of the compounds in DMSO were prepared, and these were diluted at various concentrations into the assay buffer (50 mM MES/NaOH 6.5 with 10 mM CaCl2 and 0.2% Pluronic F-68), which was also used for dilution of the enzyme and substrate. The potency of the compounds [IC50] was calculated from the inhibition/inhibitor concentration data.

T1 sequence (P08254 100-272 limits assumed): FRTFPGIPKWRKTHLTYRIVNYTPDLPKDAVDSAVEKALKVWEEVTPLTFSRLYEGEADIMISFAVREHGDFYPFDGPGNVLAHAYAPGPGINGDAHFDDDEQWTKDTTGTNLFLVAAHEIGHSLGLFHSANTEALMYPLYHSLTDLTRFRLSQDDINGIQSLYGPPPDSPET

In turn, `CN1C(=O)N(CC(COc2ccc(-c3ccc(C#N)cc3)cc2)N(O)C=O)C(=O)C1(C)C` (racemic) [Example 4, (±)-N-[1-[[(4′-cyano-[1,1′-biphenyl]-4-yl)oxy]methyl]-2-(3,4,4-trimethyl-2,5-dioxoimidazolidin-1-yl)ethyl]-N-hydroxyformamide] registered a melting point of 65 to 67 °C. Moreover, in data set [1], the IC50 amounted to 9.1 nM.

Compound `CN1C(=O)N(CCC(COc2ccc(-c3ccc(C#N)cc3)cc2)N(O)C=O)C(=O)C1(C)C` (racemic) [Example 5, (±)-N-[1-[[(4′-cyano-[1,1′-biphenyl]-4-yl)oxy]methyl]-3-(3,4,4-trimethyl-2,5-dioxoimidazolidiny-1-yl)propyl]-N-hydroxyformamide] yielded a melting point of 68 to 70 °C. Besides, in data set [1], the IC50 stood at 17 nM.

In turn, `CC(C)CC(COc1ccc(-c2ccc(C#N)cc2)cc1)N(O)C=O` (racemic) [Example 7, (±)-N-[1-[[(4′-cyano-[1,1′-biphenyl]-4-yl)oxy]methyl]-3-methylbutyl]-N-hydroxyformamide] came in with a melting point of 112 to 113 °C. For the same compound, in data set [1], the 50% inhibitory concentration (IC50) was 120 nM.

As to `CCC(CS(=O)(=O)c1ccc(-c2ccc(OC)cc2)cc1)N(O)C=O` (stereo not shown) [Example 75, N-[1-[[(4′-methoxyl[1,1′-biphenyl]-4-yl)sulfonyl]methyl]propyl]-N-hydroxyformamide], the melting point fell in the range of 199 to 200 °C.

`O=CN(O)C(COCc1ccccc1)CS(=O)(=O)c1ccc(-c2ccc(C(F)(F)F)cc2)cc1` (stereo not shown) [Example 77, N-[1-[(phenylmethoxy)methyl]-2-[[4′-(trifluoromethyl)[1,1′-biphenyl]-4-yl]sulfonyl]ethyl]-N-hydroxyformamide]: the melting point turned out to be 172 °C.

`CN1C(=O)N(CC(COc2ccc(-c3ccc(S(N)(=O)=O)cc3)cc2)N(O)C=O)C(=O)C1(C)C` (stereo not shown) [Example 114, N-[1-[[[4′-(aminosulfonyl)[1,1′-biphenyl]-4-yl]oxy]methyl]-2-(3,4,4-trimethyl-2,5-dioxo-1-imidazolidinyl)ethyl]-N-hydroxyformamide] showed a melting point of 203 to 205 °C.

With `CC1(C)NC(=O)N(CC(CS(=O)(=O)c2ccc(-c3ccc(OC(F)(F)F)cc3)cc2)N(O)C=O)C1=O` (stereo not shown) [Example 115, N-[1-[[[4′-(trifluoromethoxy)[1,1′-biphenyl]-4-yl]sulfonyl]methyl]-2-(4,4-dimethyl-2,5-dioxo-1-imidazolidinyl)ethyl]-N-hydroxyformamide], the melting point was 195 to 197 °C.

One may read the IC50 as the concentration that gives 50% inhibition. What is called melting point is the temperature of the solid-liquid transition.
